{"source": "patent US11180767B2", "about": "“Protease deficient filamentous fungal cells and methods of use thereof” (GLYKOS FINLAND OY, priority 2012, dated 2021)", "key": {"[1]": {"system": "rituximab antibody producing strain", "assay": "Treatment of T. reesei rituximab cultures with inhibitors", "format": "cell-based, Trichoderma reesei", "protocol": "The effectiveness of the inhibitors was also tested with the rituximab antibody producing strain, which contains a VALEKR linker sequence and the pep1 deletion. This strain was grown in triplicate, in small flasks both in presence or absence of chymostatin, SBTI, or pepstatin A. The small shake flasks contained 50 ml of TrMM plus lactose (40 g/l), spent grain extract (20 g/l), and buffer with 100 mM PIPPS at pH 5.5. The SBTI inhibitor was added to the culture at final concentrations of either 100 μg/ml or 500 μg/ml. Chymostatin was used at 100 μM, and pepstatin A was used at 10 μM. Each of the three inhibitors was added to the cultures daily on day 2, 3, 4, and 5.\nGrowth of the cultures was followed daily by pH from day 2 until day 7. […] In the PIPPS buffered cultures, the pH decreased from an initial pH of 5.5 down to a pH of 4.8 after day 6. With chymostatin and pepstatin A the cultures were monitored up to day 7. On day 7 the average pH for the control bottles was 4.6, while the average pH for chymostatin treated cultures was 4.9, and the average pH of pepstatin A treated cultures was 5.0.\nCulture supernatant samples (30 μl) were also collected on days 3, 4, and 5 for analysis of antibody production. The analysis was performed by immunoblots using an anti-IgG heavy chain antibody AP conjugate (Sigma #A3188) and an anti-light chain antibody AP conjugate (Sigma #A3812). Each antibody was diluted 1:30,000 in TBST. The full length rituximab heavy chain is about 51 kD, the rituximab light chain CHBI fusion is about 100 kD, and the free rituximab light chain is about 28 kD."}, "[2]": {"system": "SIP purified proteases (PEP2, PEP3, PEP4, PEP5, GAP1, SLP2)", "assay": "Protease activity of SIP purified fractions against casein with inhibitors (EnzChek)", "format": "biochemical, Trichoderma reesei", "details": "pH 5.5", "protocol": "Protease activity was then tested against casein both in the presence and absence of protease inhibitors. Protease activity against casein was tested using the EnzChek protease assay kit (Molecular probes #E6638, green fluorescent casein substrate). The working stock solution was prepared by diluting the stock to 10 μg ml in 50 mM sodium citrate, pH 5.5. The purified protease fractions (10 μl) were diluted with […] of sodium citrate, pH 5.5. 100 μl of the diluted substrate was combined with the diluted protease fractions in a 96 well sample plate. The plate was then covered and kept at 37° C. for one to three hours. Fluorescence readings were taken at one, two, and three hours with a Varioskan fluorescent plate reader (Thermo Scientific) using 485 nm excitation and 530 nm emission.\nThe SIP inhibitor peptide, pepstatin A, LIP peptide, SBTI, and chymostatin were used as inhibitors. […] SIP, LIP, and pepstatin A were used at a concentration of 60 μM, and SBTI was used at a concentration of 200 μg/ml."}, "[3]": {"system": "M369 human growth hormone strain", "assay": "hGH production in 24 well cultures with inhibitors and supplements", "format": "cell-based, Trichoderma reesei", "details": "24 well culture, pH 4.5, day 4 immunoblot", "protocol": "To evaluate what inhibitors would best stabilize production of hGH, 24 well cultures of these strains were performed. The M369 human growth hormone strain (Δpep1Δtsp1Δslp1Δgap1Δgap2) was grown along with single components or with combinations of the following: trypsin and subtilisin inhibitor SBTI, the acidic protease inhibitor peptide SIP, the acidic protease inhibitor peptide LIP, the aspartic protease inhibitor pepstatin A free peptide, pepstatin A immobilized to agarose beads, the trypsin and subtilisin inhibitor BBI from lima bean, the […] chymostatin, and BSA. Three independent wells were chosen for control wells where no inhibitors or supplements were added. These two strains were grown in 3 ml of TrMM with diammonium citrate without ammonium sulfate, 100 mM PIPPS, 20 g/L spent grain extract, 40 g/L lactose adjusted to pH 4.5. The 24 well plates were shaken at 800 rpm, 85% humidity, and 28° C. The cultures were grown for 6 days and covered with an air permeable membrane.\nInhibitors were added first on day 1 and then daily beginning on day 3. 100 μl samples were taken from the culture wells beginning on day 3. The mycelium was spun down for 5 minutes at 13 k and the supernatant collected. From the culture supernatant 12 μl was loaded in a 4-20% SDS PAGE gel and immunoblotting made on nitrocellulose with mouse anti-hGH antibody (2 μg/ml) and goat anti-mouse IgG AP conjugated secondary antibody diluted 1:10,000 in TBST.\nEstimating the expression levels relative to the 200 ng control sample, the control wells produced between 3-6 mg/L of hGH, the BSA (0.25%)/SIP (50 μM)/8BTI (0.2 mg/ml) treatment produced 24.5 mg/L, the SIP (50 μM)/8BTI (0.2 mg/ml) treatment produced 26.6 mg/L, and the pepstatin A beads/SBTI (0.2 mg/ml) addition yielded 24.5 mg/L of hGH. Therefore, using a combination of inhibitors and additives worked best increasing the production levels by at least 4-fold. The critical parameter was to include an aspartic protease inhibitor into the mix."}, "[4]": {"system": "tryptic and chymotryptic proteases", "assay": "In vitro inhibitor treatment: rituximab heavy chain degradation in M44 supernatant", "format": "biochemical, Trichoderma reesei", "details": "100 μM chymostatin or 1 mg/ml SBTI; M44 supernatant 6 mg/ml, pH 5.5", "protocol": "Based on the knowledge that the heavy chain is cleaved by tryptic and chymotryptic proteases, inhibitors of these two enzyme classes were tested against antibody degradation both in vitro and in culture experiments utilizing an antibody producing T. reesei strain. The inhibitors soybean trypsin inhibitor (SBTI) and chymostatin were tested, as they have been previously shown in in vitro experiments to stabilize antibody heavy chains.\nChymostatin and SBTI were analyzed in vitro with culture supernatant. Supernatant from a fed batch fermentor culture was diluted to 6 mg/ml with sodium citrate buffer pH 5.5 (pH 5.5; 28° C.; 20 g/L spent grain extract, 60 g/L lactose). […] The strain was grown in Trichoderma minimal medium supplemented with 20 g/l spent grain extract and 60 g/l lactose at pH 5.5 and 28° C.\nTo this diluted supernatant 0.05 μg μl of rituximab, 100 μM chymostatin, 1 mg/ml SBTI, or a combination of both inhibitors was added in a total volume of 50 μl and sampled at 0, 1, and 19 hours to assess the early and late degradation of the rituximab antibody heavy chain. The resulting heavy chain products were analyzed by immunoblot using and anti-heavy chain AP conjugated antibody (Sigma #A3188) diluted 1:30,000 in TBST (FIG. 35). […] Additional fragments were generated after 19 hours, the two major products remained."}, "[5]": {"details": "third chymostatin culture sample, 100 μM"}}}
{"smiles": "CC(C)C[C@H](NC(=O)[C@@H](NC(=O)N[C@@H](Cc1ccccc1)C(=O)O)[C@@H]1CCN=C(N)N1)C(=O)N[C@H](C=O)Cc1ccccc1", "note": "[chymostatin]", "values": [{"measurement": "rituximab heavy chain production vs untreated cultures", "setting": "[1]; day 5, SBTI 100 or 500 μg/ml, chymostatin 100 μM", "result": "increased the amount of full length rituximab heavy chain produced"}, {"measurement": "effect on culture growth (followed by pH)", "setting": "[1]; small shake flasks, inhibitors added daily day 2-5", "result": "small reduction in growth"}, {"measurement": "full length rituximab heavy chain", "setting": "[1]; [5]", "result": "approximately 90%"}, {"measurement": "heavy chain fragment", "setting": "[1]; [5]", "result": "~10", "unit": "%"}, {"measurement": "proteases inhibited", "setting": "[2]; SIP, LIP, pepstatin A 60 μM, SBTI 200 μg/ml", "result": "inhibited SLP2"}, {"measurement": "inhibition of SIP purified protease activity against casein", "setting": "[2]; FIG. 11", "result": "able to inhibit the SLP2 protease"}, {"measurement": "effect on hGH production", "setting": "[3]", "result": "improved the amount of full length product observed"}, {"measurement": "rituximab heavy chain fragment formation", "setting": "[4]", "result": "inhibited the initial production of the 42 kDa fragment"}]}
